# Experiment: Dissolution test (FDA dissolution method for entacapone, USP paddle apparatus, HPLC analysis)
# Assay type: physicochemical
# Details: USP standard paddle stirring apparatus, 50 rpm, 900 mL pH 5.5 phosphate buffer solution, 120 minutes
# Procedure: The dissolution test was conducted according to the drug dissolution method for entacapone obtained by searching the Dissolution Methods Database provided on the FDA website (http://www.accessdata.fda.gov/scripts/cder/dissolution/dsp_Search Results_Dissolutions.cfm). The dissolution test was carried out using a USP standard paddle stirring apparatus with a rotation speed of 50 rpm. The solvent used was 900 mL pH 5.5 phosphate buffer solution and the period of test was 120 minutes.
compound,measurement,value
"CCN(CC)C(=O)/C(C#N)=C/c1cc(O)c(O)c([N+](=O)[O-])c1 [entacapone, (E)-2-cyano-3-(3,4-dihydroxy-5-nitro-phenyl)-N,N-diethyl-2-propenamide]",Dissolution Rate (%),about 81.15%
